Consider 8 molecules from ChEMBL document CHEMBL5665443, “Enzyme Inhibitor Single Concentration assay results for EUbOPEN Chemogenomics Library” (2024).

Molecules are shown by their SMILES.

What all share (conditions): Hit No
The target in experiment [1] is N-glycosylase/DNA lyase (Homo sapiens) (UniProt O15527).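 Also: OGG1 cleavage of a quenched duplex DNA oligonucleotide, coupled to APE1 for strand incision, read as fluorescence at 594 nm.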
Description: Inhibition of OGG1 by quantifying inhibition of OGG1-mediated cleavage and dissociation of quenched duplex DNA oligonucleotides, measured as fluorescence at 594 nm. To generate a functional strand incision and increase turn-over this assay is coupled to APE1.
For experiment [2], the target named is Uracil-DNA glycosylase (Homo sapiens) (UniProt P13051).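 Also: UNG excision on a quenched double-stranded DNA oligo probe, with APE1 added for strand incision and turnover, read as fluorescence at 594 nm as strands separate.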
Description: Inhibition of UNG by quantifying inhibition of UNG-mediated cleavage and dissociation of quenched duplex DNA oligonucleotides, measured as fluorescence at 594 nm. To generate a functional strand incision and increase turn-over this assay is coupled to APE1.
The target in experiment [3] is Methyl-CpG-binding domain protein 4 (Homo sapiens) (UniProt O95243).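 Also: MBD4 activity read as fluorescence at 594 nm from cleavage and release of a quenched duplex DNA oligonucleotide, with APE1 coupled to incise the strand and raise turnover.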
Description: Inhibition of MBD4 by quantifying inhibition of MBD4-mediated cleavage and dissociation of quenched duplex DNA oligonucleotides, measured as fluorescence at 594 nm. To generate a functional strand incision and increase turn-over this assay is coupled to APE1.
For experiment [4], the target named is T1, Endonuclease 8-like 2 (Homo sapiens) (UniProt Q969S2).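 Also: fluorescence at 594 nm reports NEIL2 cutting and release of a quenched double-stranded DNA oligo substrate, reduced signal read as inhibition.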
T1 sequence (whole entry): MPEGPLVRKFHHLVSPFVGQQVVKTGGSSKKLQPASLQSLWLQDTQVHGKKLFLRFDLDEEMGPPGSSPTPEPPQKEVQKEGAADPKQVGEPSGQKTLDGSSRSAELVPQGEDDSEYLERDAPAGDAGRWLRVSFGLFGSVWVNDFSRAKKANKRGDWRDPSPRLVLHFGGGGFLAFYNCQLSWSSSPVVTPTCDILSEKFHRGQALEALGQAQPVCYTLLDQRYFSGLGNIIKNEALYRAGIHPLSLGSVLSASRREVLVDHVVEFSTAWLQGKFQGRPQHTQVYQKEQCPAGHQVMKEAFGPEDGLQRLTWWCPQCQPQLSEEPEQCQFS
Description: Inhibition of NEIL2 by quantifying inhibition of NEIL2-mediated cleavage and dissociation of quenched duplex DNA oligonucleotides, measured as fluorescence at 594 nm.

In experiment [5] the target is Endonuclease 8-like 1 (Homo sapiens) (UniProt Q96FI4).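 Also: fluorescence at 594 nm from quenched duplex DNA oligonucleotides released by NEIL1 cleavage and strand separation, reported as reduction of this enzyme activity.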
Description: Inhibition of NEIL1 by quantifying inhibition of NEIL1-mediated cleavage and dissociation of quenched duplex DNA oligonucleotides, measured as fluorescence at 594 nm.
For experiment [6], the target named is T2, Single-strand selective monofunctional uracil DNA glycosylase (Homo sapiens) (UniProt Q53HV7).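 Also: enzymatic SMUG1 assay coupled with APE1, reading fluorescence at 594 nm released when a quenched double-stranded DNA oligonucleotide substrate is cleaved and separated.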
T2 sequence (whole entry): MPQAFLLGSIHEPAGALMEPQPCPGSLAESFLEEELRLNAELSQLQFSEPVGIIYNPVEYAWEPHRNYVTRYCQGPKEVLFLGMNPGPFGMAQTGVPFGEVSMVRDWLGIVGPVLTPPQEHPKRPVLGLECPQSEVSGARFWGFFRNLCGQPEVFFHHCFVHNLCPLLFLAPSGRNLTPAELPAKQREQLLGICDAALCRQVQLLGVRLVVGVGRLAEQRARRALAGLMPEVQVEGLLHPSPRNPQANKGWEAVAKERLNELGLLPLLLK
Description: Inhibition of SMUG1 by quantifying inhibition of SMUG1-mediated cleavage and dissociation of quenched duplex DNA oligonucleotides, measured as fluorescence at 594 nm. To generate a functional strand incision and increase turn-over this assay is coupled to APE1.

Experiment [7] has as its target T3, Endonuclease III-like protein 1 (Homo sapiens) (UniProt P78549).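 Also: enzyme assay tracking NTHL1 cutting and release of a quenched double-stranded DNA oligo substrate, read as fluorescence at 594 nm.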
T3 sequence (whole entry): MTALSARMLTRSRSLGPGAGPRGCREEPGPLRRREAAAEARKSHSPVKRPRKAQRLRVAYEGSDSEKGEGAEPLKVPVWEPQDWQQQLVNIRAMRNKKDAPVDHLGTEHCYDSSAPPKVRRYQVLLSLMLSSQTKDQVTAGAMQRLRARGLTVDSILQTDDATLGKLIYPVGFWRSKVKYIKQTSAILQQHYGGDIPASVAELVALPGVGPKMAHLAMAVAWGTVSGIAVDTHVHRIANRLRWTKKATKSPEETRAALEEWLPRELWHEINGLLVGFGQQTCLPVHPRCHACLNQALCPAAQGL
Description: Inhibition of NTHL1 by quantifying inhibition of NTHL1-mediated cleavage and dissociation of quenched duplex DNA oligonucleotides, measured as fluorescence at 594 nm.

The target of experiment [8] is T4, Adenine DNA glycosylase (Homo sapiens) (UniProt Q9UIF7).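 Also: human MUTYH activity read as 594 nm fluorescence from cleavage and release of a quenched DNA duplex, coupled with APE1 for strand incision, lower signal meaning inhibition.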
T4 sequence (whole entry): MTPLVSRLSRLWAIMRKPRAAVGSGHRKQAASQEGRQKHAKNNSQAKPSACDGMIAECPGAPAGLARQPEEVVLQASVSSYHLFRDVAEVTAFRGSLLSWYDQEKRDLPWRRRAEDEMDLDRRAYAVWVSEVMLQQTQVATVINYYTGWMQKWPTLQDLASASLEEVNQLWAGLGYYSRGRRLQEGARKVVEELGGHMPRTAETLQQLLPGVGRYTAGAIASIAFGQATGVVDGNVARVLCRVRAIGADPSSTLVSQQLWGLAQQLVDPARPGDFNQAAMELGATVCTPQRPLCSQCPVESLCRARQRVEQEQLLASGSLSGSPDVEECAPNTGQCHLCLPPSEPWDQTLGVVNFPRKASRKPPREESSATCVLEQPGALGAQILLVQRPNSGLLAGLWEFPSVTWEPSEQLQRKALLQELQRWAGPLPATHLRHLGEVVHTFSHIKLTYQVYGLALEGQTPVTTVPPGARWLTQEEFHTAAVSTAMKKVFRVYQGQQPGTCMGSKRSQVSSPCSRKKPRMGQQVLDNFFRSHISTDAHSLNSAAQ
Description: Inhibition of MUTYH by quantifying inhibition of MUTYH-mediated cleavage and dissociation of quenched duplex DNA oligonucleotides, measured as fluorescence at 594 nm. To generate a functional strand incision and increase turn-over this assay is coupled to APE1.

In experiment [9] the target is G/T mismatch-specific thymine DNA glycosylase (Homo sapiens) (UniProt Q13569).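 Also: human TDG cleavage of quenched duplex DNA oligonucleotides coupled to APE1, strand release read as fluorescence at 594 nm, inhibition of TDG activity.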
Sequence of G/T mismatch-specific thymine DNA glycosylase (Homo sapiens) (Q13569 whole entry): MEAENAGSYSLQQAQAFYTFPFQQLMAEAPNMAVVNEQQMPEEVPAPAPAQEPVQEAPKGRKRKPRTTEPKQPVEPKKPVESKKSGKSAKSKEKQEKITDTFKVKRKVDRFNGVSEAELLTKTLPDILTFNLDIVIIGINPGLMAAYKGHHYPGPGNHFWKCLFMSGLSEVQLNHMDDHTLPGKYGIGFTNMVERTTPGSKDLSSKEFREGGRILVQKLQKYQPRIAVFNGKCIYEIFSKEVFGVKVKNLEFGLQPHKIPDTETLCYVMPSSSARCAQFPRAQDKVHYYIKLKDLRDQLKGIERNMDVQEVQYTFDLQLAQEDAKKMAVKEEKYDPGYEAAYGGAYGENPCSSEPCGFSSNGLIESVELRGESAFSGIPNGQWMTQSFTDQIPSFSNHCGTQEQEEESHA
Description: Inhibition of TDG by quantifying inhibition of TDG-mediated cleavage and dissociation of quenched duplex DNA oligonucleotides, measured as fluorescence at 594 nm. To generate a functional strand incision and increase turn-over this assay is coupled to APE1.

Sequence of N-glycosylase/DNA lyase (Homo sapiens) (O15527 whole entry): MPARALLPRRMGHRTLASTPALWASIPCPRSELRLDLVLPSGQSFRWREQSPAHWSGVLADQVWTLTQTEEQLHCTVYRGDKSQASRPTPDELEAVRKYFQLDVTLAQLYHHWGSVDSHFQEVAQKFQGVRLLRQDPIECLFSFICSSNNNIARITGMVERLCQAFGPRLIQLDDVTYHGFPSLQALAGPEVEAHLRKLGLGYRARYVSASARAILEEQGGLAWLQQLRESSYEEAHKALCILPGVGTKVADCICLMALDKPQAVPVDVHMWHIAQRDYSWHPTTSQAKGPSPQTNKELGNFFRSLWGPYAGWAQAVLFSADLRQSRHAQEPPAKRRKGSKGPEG
Sequence of Uracil-DNA glycosylase (Homo sapiens) (P13051 whole entry, the tested form may be a part): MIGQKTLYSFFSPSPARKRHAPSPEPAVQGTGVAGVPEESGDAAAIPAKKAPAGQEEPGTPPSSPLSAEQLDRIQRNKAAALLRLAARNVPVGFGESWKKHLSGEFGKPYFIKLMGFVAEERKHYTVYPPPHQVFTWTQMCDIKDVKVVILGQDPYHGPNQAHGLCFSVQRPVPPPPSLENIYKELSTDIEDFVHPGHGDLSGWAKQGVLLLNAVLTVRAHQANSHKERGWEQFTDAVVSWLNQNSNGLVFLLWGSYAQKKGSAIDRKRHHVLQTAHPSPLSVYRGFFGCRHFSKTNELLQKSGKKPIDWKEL
Sequence of Endonuclease 8-like 1 (Homo sapiens) (Q96FI4 whole entry): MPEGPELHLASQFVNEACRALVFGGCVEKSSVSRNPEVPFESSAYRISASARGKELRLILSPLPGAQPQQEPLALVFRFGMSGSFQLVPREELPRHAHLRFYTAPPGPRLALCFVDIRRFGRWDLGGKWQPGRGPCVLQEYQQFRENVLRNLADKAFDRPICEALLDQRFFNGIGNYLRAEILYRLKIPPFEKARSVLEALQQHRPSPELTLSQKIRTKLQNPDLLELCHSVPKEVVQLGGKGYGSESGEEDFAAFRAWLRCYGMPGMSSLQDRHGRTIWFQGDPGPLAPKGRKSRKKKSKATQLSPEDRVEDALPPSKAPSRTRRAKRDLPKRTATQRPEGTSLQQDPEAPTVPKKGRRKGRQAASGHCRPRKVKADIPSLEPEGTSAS
Sequence of Methyl-CpG-binding domain protein 4 (Homo sapiens) (O95243 whole entry, the tested form may be a part): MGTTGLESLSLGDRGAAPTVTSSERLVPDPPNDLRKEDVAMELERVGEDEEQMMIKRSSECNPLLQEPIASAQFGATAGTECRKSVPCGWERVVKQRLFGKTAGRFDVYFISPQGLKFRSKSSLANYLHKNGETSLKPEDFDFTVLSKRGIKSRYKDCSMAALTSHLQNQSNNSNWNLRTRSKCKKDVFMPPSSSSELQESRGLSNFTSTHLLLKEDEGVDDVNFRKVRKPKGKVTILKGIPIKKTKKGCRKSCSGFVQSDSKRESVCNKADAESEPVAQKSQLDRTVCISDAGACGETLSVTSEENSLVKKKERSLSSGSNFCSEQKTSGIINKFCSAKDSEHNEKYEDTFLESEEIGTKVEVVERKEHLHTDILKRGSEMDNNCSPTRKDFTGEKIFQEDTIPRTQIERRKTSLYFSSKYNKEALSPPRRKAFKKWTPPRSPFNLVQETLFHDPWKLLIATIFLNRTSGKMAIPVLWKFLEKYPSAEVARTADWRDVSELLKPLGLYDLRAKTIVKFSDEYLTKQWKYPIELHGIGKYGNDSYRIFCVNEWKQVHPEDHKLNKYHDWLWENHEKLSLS

For the molecule `COCCCS(=O)(=O)c1cc(C)c(-c2ccc(F)c3c2CC[C@H]3Oc2ccc3c(c2)OC[C@H]3CC(=O)O)c(C)c1`, the inhibition in [1] (Compound Concentration 10.0 uM) was 31%; in experiment [2] (Compound Concentration 10.0 uM), -1.09%; in experiment [3] (Compound Concentration 10.0 uM), 67.8%; in [4] (Compound Concentration 10.0 uM), 6.65%; in [5] (Compound Concentration 10.0 uM) it was -3.62%; in experiment [6] (Compound Concentration 10.0 uM), 6.73%. The inhibition in experiment [7] (Compound Concentration 10.0 uM) was -5.89%; in experiment [8] (Compound Concentration 10.0 uM), -1.52%; in [9] (Compound Concentration 10.0 uM), 59.1%.

Regarding `Cc1cc(OC2CCS(=O)(=O)CC2)cc(C)c1-c1cccc(COc2ccc(C(=O)O)c(F)c2)c1`, the inhibition in experiment [1] (Compound Concentration 10.0 uM) was 31.5%; in experiment [2] (Compound Concentration 10.0 uM), 6.33%; in [3] (Compound Concentration 10.0 uM), 67.4%; in experiment [4] (Compound Concentration 10.0 uM), -1.51%; in experiment [5] (Compound Concentration 10.0 uM) it was -1.96%; in [6] (Compound Concentration 10.0 uM), 23.6%. Further, the inhibition is -5.23% in experiment [7] (Compound Concentration 10.0 uM), 8.53% in [8] (Compound Concentration 10.0 uM) and 100% in [9] (Compound Concentration 10.0 uM).

For the molecule `CCOC(=O)C1Cc2ccccc2CN1C(=O)c1ccc(SC)s1` (centres undefined), the inhibition in [1] (Compound Concentration 10.0 uM) is 13.5%; in experiment [2] (Compound Concentration 10.0 uM), 0.734%; in experiment [3] (Compound Concentration 10.0 uM) it was 59.4%; in [4] (Compound Concentration 10.0 uM) it was 4.36%; in experiment [5] (Compound Concentration 10.0 uM) it was -1.35%; in experiment [6] (Compound Concentration 10.0 uM), 19.5%. For the same molecule, the figures for the inhibition in experiment [7] (Compound Concentration 10.0 uM), in experiment [8] (Compound Concentration 10.0 uM) and in experiment [9] (Compound Concentration 10.0 uM) were 1.34%, -2.13% and 98.9%, respectively.

Consider `C[C@@H]1CN(c2cc(-c3nn(C)c4ccc(OC5(C)CC5)cc34)ncn2)C[C@H](C)O1`, for which the inhibition was 11.8% in experiment [1] (Compound Concentration 1.0 uM); -5.93% in experiment [2] (Compound Concentration 1.0 uM); 4.62% in experiment [2] (Compound Concentration 10.0 uM); 101% in experiment [3] (Compound Concentration 1.0 uM); 67.5% in experiment [3] (Compound Concentration 10.0 uM); -5.15% in experiment [4] (Compound Concentration 1.0 uM). Also, the inhibition in experiment [4] (Compound Concentration 10.0 uM) was 1.04%; in experiment [5] (Compound Concentration 1.0 uM), -5.67%; in experiment [5] (Compound Concentration 10.0 uM), 4.71%; in experiment [6] (Compound Concentration 1.0 uM), 3.32%; in experiment [6] (Compound Concentration 10.0 uM) it was 15.6%; in experiment [7] (Compound Concentration 10.0 uM), -7.86%. Also, the inhibition in experiment [8] (Compound Concentration 1.0 uM) was -9.65%; in [8] (Compound Concentration 10.0 uM) it was -0.542%; in experiment [9] (Compound Concentration 1.0 uM) it was 34.4%; in [9] (Compound Concentration 10.0 uM), 63%.

As to `Cc1cc(OCCC(C)(C)O)cc(C)c1-c1ccc(F)c2c1CC[C@H]2Oc1ccc2c(c1)OC[C@H]2CC(=O)O`, the inhibition in experiment [1] (Compound Concentration 10.0 uM) was 78.7%; in experiment [2] (Compound Concentration 10.0 uM), 1.96%; in [3] (Compound Concentration 10.0 uM), 64.2%; in [4] (Compound Concentration 10.0 uM), -1.76%; in [5] (Compound Concentration 10.0 uM), -2.26%; in [6] (Compound Concentration 10.0 uM), 18.5%. Also, the results for the inhibition in [7] (Compound Concentration 10.0 uM), in experiment [8] (Compound Concentration 10.0 uM) and in experiment [9] (Compound Concentration 10.0 uM) were -4.57%, 10% and 61.7%, respectively.

`CC(C)NC(=O)N1CC[C@H](NC2=Nc3cc(F)ccc3N(CC(F)F)c3ccc(Cl)cc32)C1`: the inhibition in [1] (Compound Concentration 10.0 uM) was -3.5%; in [2] (Compound Concentration 10.0 uM), 8.59%; in experiment [3] (Compound Concentration 10.0 uM), 0.374%; in experiment [4] (Compound Concentration 10.0 uM) it was -0.0337%; in experiment [5] (Compound Concentration 10.0 uM), -1.58%; in experiment [6] (Compound Concentration 10.0 uM), 26.7%. For the same molecule, the inhibition is 4.27% in experiment [7] (Compound Concentration 10.0 uM), 13.1% in experiment [8] (Compound Concentration 10.0 uM) and 62.4% in experiment [9] (Compound Concentration 10.0 uM).

Consider `CN(C)C(=O)Cn1cc(-c2ccc(-c3cncc4ccccc34)cc2)cn1`, for which the inhibition in [1] (Compound Concentration 1.0 uM) was -1.89%; in experiment [2] (Compound Concentration 1.0 uM), 0.741%; in experiment [3] (Compound Concentration 1.0 uM), 30%; in experiment [4] (Compound Concentration 1.0 uM), -1.92%; in experiment [5] (Compound Concentration 1.0 uM), -4.09%; in experiment [6] (Compound Concentration 1.0 uM), 16.6%. The results for the inhibition in [7] (Compound Concentration 1.0 uM), in experiment [8] (Compound Concentration 1.0 uM) and in experiment [9] (Compound Concentration 1.0 uM) were -6.19%, 5.04% and 40.2%, respectively.

Take `OCCn1cc(-c2ccc3c(c2)CCC3=NO)c(-c2ccncc2)n1`: the inhibition in experiment [1] (Compound Concentration 1.0 uM) was 1.67%; in experiment [2] (Compound Concentration 1.0 uM) it was 2.27%; in experiment [3] (Compound Concentration 1.0 uM), 48.6%; in experiment [4] (Compound Concentration 1.0 uM), -7.84%; in experiment [5] (Compound Concentration 1.0 uM), 0.138%; in experiment [6] (Compound Concentration 1.0 uM) it was 16.9%. Moreover, the inhibition in experiment [7] (Compound Concentration 1.0 uM) is 1.48%; in experiment [8] (Compound Concentration 1.0 uM), -3.03%; in experiment [9] (Compound Concentration 1.0 uM), 25.9%.

As a reminder, the inhibition is the relative decrease from the control value, in per cent.
